US11708344B2, “Flavone derivatives for the treatment and prophylaxis of hepatitis B virus disease” (Hoffmann-La Roche Inc., priority 2018, dated 2023)

Key:
[1] = system: HBeAg (surrogate marker for cccDNA) in HepDES19 cells; assay: Engineered HepDES19 primary screen assay (HBeAg ELISA); format: cell-based, HBV; settings: Hepatitis B virus, HepDES19, 120 h, read-out: IC50 (HBeAg level, HepDES19 primary screen assay), HepDES19 cells, 5 days compound incubation, HBeAg ELISA
Outline: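 HepDES19 cells were induced by Tet withdrawal for 8 days, then treated with half-log compound dilutions (1% DMSO final) for 5 days at 37 °C. HBeAg was measured by ELISA as the cccDNA surrogate, viability by CCK-8, and IC50 from a 4-parameter logistic fit.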

[2] = Human microsome stability assay; format: in vitro ADME; settings: human liver microsomes, 1 μM test compound, 0.5 mg/mL microsomal protein, 37° C., pH 7.4, 0-30 minutes
Experimental: The human microsomal stability assay is used for early assessment of metabolic stability of a test compound in human liver microsomes.
Human liver microsomes (Cat. NO.: 452117, Corning, USA; Cat. NO.: H2610, Xenotech, USA) were preincubated with test compound for 10 minutes at 37° C. in 100 mM potassium phosphate buffer, pH 7.4. The reactions were initiated by adding NADPH regenerating system. The final incubation mixtures contained 1 μM test compound, 0.5 mg/mL liver microsomal protein, 1 mM MgCl2, 1 mM NADP, 1 unit/mL isocitric dehydrogenase and 6 mM isocitric acid in 100 mM potassium phosphate buffer, pH 7.4. After incubation times of 0, 3, 6, 9, 15 and 30 minutes at 37° C., 300 μL of cold ACN (including internal standard) was added to 100 μL incubation mixture to terminate the reaction. Following precipitation and centrifugation, the amount of compound remaining in the samples was determined by LC-MS/MS. Controls of no NADPH regenerating system at zero and 30 minutes were also prepared and analyzed.

Cc1ccc(-c2cc(=O)c3cccc(Cl)c3o2)c(OCC(=O)N2CCC[C@H]2C(=O)NS(C)(=O)=O)c1 [Example A093, (2S)-1-[2-[2-(8-chloro-4-oxo-chromen-2-yl)-5-methyl-phenoxy]acetyl]-N-methylsulfonyl-pyrrolidine-2-carboxamide]
IC50 [1]: 1.32 µM
Clearance of Human microsome [2]: 6.15 mL/min/kg

Cc1ccc(-c2cc(=O)c3cccc(Cl)c3o2)c(OCC(=O)N2CCC[C@@H]2C(=O)NS(C)(=O)=O)c1 [Example A094, (2R)-1-[2-[2-(8-chloro-4-oxo-chromen-2-yl)-5-methyl-phenoxy]acetyl]-N-methylsulfonyl-pyrrolidine-2-carboxamide]
IC50 [1]: 0.858 µM
Clearance of Human microsome [2]: 6.15 mL/min/kg

N[C@@H](COc1cc(C(F)(F)F)ccc1-c1cc(=O)c2cccc(Cl)c2o1)C(=O)O [Example A095, (2S)-2-amino-3-[2-(8-chloro-4-oxo-chromen-2-yl)-5-(trifluoromethyl)phenoxy]propanoic acid]
IC50 [1]: 3.29 µM
Clearance of Human microsome [2]: 9.59 mL/min/kg

Cc1cc(Br)c(OC2CC(C(=O)O)C2)c(-c2cc(=O)c3cccc(Cl)c3o2)c1 (stereo not drawn) [Example B009, 3-[2-bromo-6-(8-chloro-4-oxo-chromen-2-yl)-4-methyl-phenoxy]cyclobutanecarboxylic acid]
IC50 [1]: 5.98 µM
Clearance of Human microsome [2]: 6.19 mL/min/kg

Cc1ccc(O[C@H]2C[C@@H](C(=O)O)C2)c(-c2cc(=O)c3cccc(Cl)c3o2)c1 [Example B016, Cis-3-[2-(8-chloro-4-oxo-chromen-2-yl)-4-methyl-phenoxy]cyclobutanecarboxylic acid]
IC50 [1]: 3.1 µM
Clearance of Human microsome [2]: 6.15 mL/min/kg

CCc1ccc(-c2cc(=O)c3cccc(Cl)c3o2)c(O[C@H]2C[C@H](C(=O)O)C2)c1 [Example B019-B, Trans-3-[2-(8-chloro-4-oxo-chromen-2-yl)-5-ethyl-phenoxy]cyclobutanecarboxylic acid]
IC50 [1]: 3.63 µM
Clearance of Human microsome [2]: 8.92 mL/min/kg

CC(C)c1ccc(-c2cc(=O)c3cccc(Cl)c3o2)c(O[C@H]2C[C@H](C(=O)O)C2)c1 [Example B020-B, Trans-3-[2-(8-chloro-4-oxo-chromen-2-yl)-5-isopropyl-phenoxy]cyclobutanecarboxylic acid]
IC50 [1]: 9.44 µM
Clearance of Human microsome [2]: 8.46 mL/min/kg

COc1ccc(O[C@H]2C[C@H](C(=O)O)C2)c(-c2cc(=O)c3cccc(Cl)c3o2)c1 [Example B021, Trans-3-[2-(8-chloro-4-oxo-chromen-2-yl)-4-methoxy-phenoxy]cyclobutanecarboxylic acid]
IC50 [1]: 3.06 µM
Clearance of Human microsome [2]: 6.15 mL/min/kg

O=c1cc(-c2ccccc2O[C@H]2C[C@H](C(=O)O)C2)oc2c(Br)cccc12 [Example B022-B, Trans-3-[2-(8-bromo-4-oxo-chromen-2-yl)phenoxy]cyclobutanecarboxylic acid]
IC50 [1]: 0.141 µM
Clearance of Human microsome [2]: 6.15 mL/min/kg

O=c1cc(-c2cc3c(cc2O[C@H]2C[C@H](C(=O)O)C2)CCO3)oc2c(Cl)cccc12 [Example B023, Trans-3-[[6-(8-chloro-4-oxo-chromen-2-yl)-2,3-dihydrobenzofuran-5-yl]oxy]cyclobutanecarboxylic acid]
IC50 [1]: 3.39 µM
Clearance of Human microsome [2]: 6.15 mL/min/kg

COc1ccc(OC[C@H]2C[C@H](C(=O)O)C2)c(-c2cc(=O)c3cccc(Cl)c3o2)c1 [Example B027-B]
IC50 [1]: 11 µM
Clearance of Human microsome [2]: 6.15 mL/min/kg

O=c1cc(-c2ncc(Br)cc2O[C@H]2C[C@H](C(=O)O)C2)oc2c(Cl)cccc12 [Example B029, Trans-3-[[5-bromo-2-(8-chloro-4-oxo-chromen-2-yl)-3-pyridyl]oxy]cyclobutanecarboxylic acid]
IC50 [1]: 14.1 µM
Clearance of Human microsome [2]: 6.15 mL/min/kg

O=c1cc(-c2ccc(C(F)(F)F)cc2O[C@H]2C[C@@H](C(=O)O)C2)oc2c(Cl)ccc(O)c12 [Example B038-A, Cis-3-[2-(8-chloro-5-hydroxy-4-oxo-chromen-2-yl)-5-(trifluoromethyl)phenoxy]cyclobutanecarboxylic acid]
IC50 [1]: 1.05 µM
Clearance of Human microsome [2]: 6.84 mL/min/kg

O=c1cc(-c2ccc(C(F)(F)F)cc2O[C@H]2C[C@H](C(=O)O)C2)oc2c(Cl)ccc(O)c12 [Example B038-B, Trans-3-[2-(8-chloro-5-hydroxy-4-oxo-chromen-2-yl)-5-(trifluoromethyl)phenoxy]cyclobutanecarboxylic acid]
IC50 [1]: 0.312 µM
Clearance of Human microsome [2]: 9.59 mL/min/kg

CCOc1ccc(-c2cc(=O)c3c(O)ccc(Cl)c3o2)c(O[C@H]2C[C@H](C(=O)O)C2)c1 [Example B039-B, Trans-3-[2-(8-chloro-5-hydroxy-4-oxo-chromen-2-yl)-5-ethoxy-phenoxy]cyclobutanecarboxylic acid]
IC50 [1]: 11.5 µM
Clearance of Human microsome [2]: 6.15 mL/min/kg

Cc1cc(-c2cc(=O)c3c(O)ccc(Cl)c3o2)c(O[C@H]2C[C@H](C(=O)O)C2)cc1Br [Example B040-B, trans-3-[5-bromo-2-(8-chloro-5-hydroxy-4-oxo-chromen-2-yl)-4-methyl-phenoxy]cyclobutanecarboxylic acid]
IC50 [1]: 2.93 µM
Clearance of Human microsome [2]: 6.29 mL/min/kg

O=C(O)CCCOc1cc(C(F)(F)F)ccc1-c1cc(=O)c2c(O)ccc(Cl)c2o1 [Example B041, 4-[2-(8-chloro-5-hydroxy-4-oxo-chromen-2-yl)-5-(trifluoromethyl)phenoxy]butanoic acid]
IC50 [1]: 0.289 µM
Clearance of Human microsome [2]: 6.15 mL/min/kg

COc1cc(OC2CC(C(=O)O)C2)c(-c2cc(=O)c3c(O)ccc(Cl)c3o2)cc1OC (stereo not drawn) [Example B042, 3-[2-(8-chloro-5-hydroxy-4-oxo-chromen-2-yl)-4,5-dimethoxy-phenoxy]cyclobutanecarboxylic acid]
IC50 [1]: 0.865 µM
Clearance of Human microsome [2]: 6.15 mL/min/kg

O=c1cc(-c2ccc(C(F)(F)F)cc2O[C@H]2C[C@@H](C(=O)NS(=O)(=O)C3CC3)C2)oc2c(Cl)cccc12 [Example B043-A, cis-3-[2-(8-chloro-4-oxo-chromen-2-yl)-5-(trifluoromethyl)phenoxy]-N-cyclopropylsulfonyl-cyclobutanecarboxamide]
IC50 [1]: 1.4 µM
Clearance of Human microsome [2]: 6.15 mL/min/kg

CS(=O)(=O)NC(=O)[C@H]1C[C@@H](Oc2cc(Br)ccc2-c2cc(=O)c3cccc(Cl)c3o2)C1 [Example B044-A, cis-3-[5-bromo-2-(8-chloro-4-oxo-chromen-2-yl)phenoxy]-N-methylsulfonyl-cyclobutanecarboxamide]
IC50 [1]: 4.62 µM
Clearance of Human microsome [2]: 6.15 mL/min/kg

CS(=O)(=O)NC(=O)[C@H]1C[C@H](Oc2cc(Br)ccc2-c2cc(=O)c3cccc(Cl)c3o2)C1 [Example B044-B, trans-3-[5-bromo-2-(8-chloro-4-oxo-chromen-2-yl)phenoxy]-N-methylsulfonyl-cyclobutanecarboxamide]
IC50 [1]: 3.72 µM
Clearance of Human microsome [2]: 6.15 mL/min/kg

CS(=O)(=O)NC(=O)[C@H]1C[C@H](Oc2cc(OC(F)(F)F)ccc2-c2cc(=O)c3cccc(Cl)c3o2)C1 [Example B047-B, Trans-3-[2-(8-chloro-4-oxo-chromen-2-yl)-5-(trifluoromethoxy)phenoxy]-N-methylsulfonyl-cyclobutanecarboxamide]
IC50 [1]: 3.76 µM
Clearance of Human microsome [2]: 6.15 mL/min/kg

CS(=O)(=O)NC(=O)[C@H]1C[C@@H](Oc2cc(C(F)(F)F)ccc2-c2cc(=O)c3cccc(Cl)c3o2)C1 [Example B048-A, Cis-3-[2-(8-chloro-4-oxo-chromen-2-yl)-5-(trifluoromethyl)phenoxy]-N-methylsulfonyl-cyclobutanecarboxamide]
IC50 [1]: 0.632 µM
Clearance of Human microsome [2]: 6.15 mL/min/kg

CS(=O)(=O)NC(=O)[C@H]1C[C@H](Oc2cc(C(F)(F)F)ccc2-c2cc(=O)c3cccc(Cl)c3o2)C1 [Example B048-B, Trans-3-[2-(8-chloro-4-oxo-chromen-2-yl)-5-(trifluoromethyl)phenoxy]-N-methylsulfonyl-cyclobutanecarboxamide]
IC50 [1]: 3.08 µM
Clearance of Human microsome [2]: 6.15 mL/min/kg

Cc1cc(-c2cc(=O)c3cccc(Cl)c3o2)c(O[C@H]2C[C@@H](C(=O)NS(C)(=O)=O)C2)cc1Br [Example B049-A, Cis-3-[5-bromo-2-(8-chloro-4-oxo-chromen-2-yl)-4-methyl-phenoxy]-N-methylsulfonyl-cyclobutanecarboxamide]
IC50 [1]: 12.2 µM
Clearance of Human microsome [2]: 7.5 mL/min/kg

COc1cc(O[C@H]2C[C@@H](C(=O)NS(C)(=O)=O)C2)c(-c2cc(=O)c3cccc(Cl)c3o2)cc1C [Example B050-A, Cis-3-[2-(8-chloro-4-oxo-chromen-2-yl)-5-methoxy-4-methyl-phenoxy]-N-methylsulfonyl-cyclobutanecarboxamide]
IC50 [1]: 7.03 µM
Clearance of Human microsome [2]: 6.15 mL/min/kg

COc1cc(-c2cc(=O)c3cccc(Cl)c3o2)c(O[C@H]2C[C@@H](C(=O)NS(C)(=O)=O)C2)cc1Br [Example B053-A, Cis-3-[5-bromo-2-(8-chloro-4-oxo-chromen-2-yl)-4-methoxy-phenoxy]-N-methylsulfonyl-cyclobutanecarboxamide]
IC50 [1]: 3.36 µM
Clearance of Human microsome [2]: 6.15 mL/min/kg
